Data set [1] concerns Aspergillus niger (CRCC 30506). Kind of data set: Antimycotic activity (MIC) on MRS agar plates inoculated with Aspergillus niger spores. Type of data set: cell-based. To be noted: 168 h, 7 days at 24° C. The method, then: The freshly prepared spore suspension (c.a. 10^6/ml)of Aspergillus niger (CRCC 30506) was inoculated on MRS agar plates containing different concentrations of natamycin. The diameter of the colonies of Aspergillus niger was measured after being incubated for 7days at 24° C. […] The results of Table 2 also indicate that the RFC mixture show higher antimycotic activity than conventional natamycin because of the improved solubility.

The nature of data set [2]: Natamycin solubility of the RFC composition in water by UV spectrophotometer at 332.6 nm. Type of data set: physicochemical. To be noted: 25° C. As for the experimental part:
The RFC compositions were prepared by mixing commercial natamycin (87%) withβ-CD(98%) in different molar ratios. A comparison on the solubility of natamycin was made for the RFC compositions. The solubility of natamycin in water is determined by UV Spectrophotometer at 332.6 nm.

The conditions of data set [3]: cited from earlier work.

Molecules are shown by their SMILES. Values after ≈ are worked out from the molar mass of the structure shown.

As usually defined, the MIC is the least concentration at which growth counts as inhibited. The low end stands for greater potency, the high end for weaker potency. In data set [1], `C[C@@H]1C/C=C/C=C/C=C/C=C/[C@H](O[C@@H]2O[C@H](C)[C@@H](O)[C@H](N)[C@@H]2O)C[C@@H]2O[C@](O)(C[C@@H](O)C[C@H]3O[C@@H]3/C=C/C(=O)O1)C[C@H](O)[C@H]2C(=O)O` [Commercial natamycin (50%), natamycin] returned an MIC of 1.25 to 1.5 µg/mL (≈ 1.88 to 2.25 µM).
As for `C[C@@H]1C/C=C/C=C/C=C/C=C/[C@H](O[C@@H]2O[C@H](C)[C@@H](O)[C@H](N)[C@@H]2O)C[C@@H]2O[C@](O)(C[C@@H](O)C[C@H]3O[C@@H]3/C=C/C(=O)O1)C[C@H](O)[C@H]2C(=O)O` [natamycin], the Solubility of natamycin in data set [2] was found to be 45 ppm. For the same compound, the solubility in water in data set [3] is 0.005-0.010 weight/weigh.

The values above are taken from patent US20060116335A1, “Ready-for-complexation composition” (Lytone Enterprise, Inc., priority 2004, published 2006).
